US10058540B2, “2-amino-5,5-difluoro-6-(fluoromethyl)-6-phenyl-3,4,5,6-tetrahydropyridines as BACE1 inhibitors” (H. Lundbeck A/S, priority 2014, dated 2018)

Legend:
P-gp (MDR1) = assay: MDCK-MDR1 assay (permeability / Pgp efflux); type: in vitro ADME; settings: dog, Papp BA/Papp AB, Pgp substrate when ≥2
Protocol: The permeability of the test compounds was assessed in MDCK-MDR1 cells that were cultured to confluency (4-6 days) in a 96 transwell plate. Test compounds were diluted with the transport buffer (HBSS+1% BSA) to a concentration of 0.5 μM and applied to the apical or basolateral side of the cell monolayer. Permeation of the test compounds from A to B direction or B to A direction was determined in triplicate over a 60-minute incubation time at 37° C. and 5% CO2 with a relative humidity of 95%. Test compounds were quantified by LC-MS/MS analysis based on the peaks area ratios of analyte/IS in both the receiver and donor wells of the transwell plate.
The apparent permeability coefficient Papp (cm/s) was calculated using the equation: Papp=(dCr/dt)×Vr/(A×C0) Where dCr/dt is the cumulative concentration of compound in the receiver chamber as a function of time (μM/s); Vr is the solution volume in the receiver chamber (0.05 mL on the apical side; 0.25 mL on the basolateral side); A is the surface area for the transport, i.e. 0.0804 cm^2 for the area of the monolayer; C0 is the initial concentration in the donor chamber (μM).
Compounds are classified Pgp substrates when efflux ratio (Papp BA/Papp AB) is ≥2.

BACE1 [1] = biological target: T1, BACE1 (Homo sapiens (Human), UniProt P56817); assay: BACE1 binding assay (SPA-based, radioligand); settings: pH 4.5, Ki=IC50/(1+L/Kd)
T1 sequence (P56817 46-501): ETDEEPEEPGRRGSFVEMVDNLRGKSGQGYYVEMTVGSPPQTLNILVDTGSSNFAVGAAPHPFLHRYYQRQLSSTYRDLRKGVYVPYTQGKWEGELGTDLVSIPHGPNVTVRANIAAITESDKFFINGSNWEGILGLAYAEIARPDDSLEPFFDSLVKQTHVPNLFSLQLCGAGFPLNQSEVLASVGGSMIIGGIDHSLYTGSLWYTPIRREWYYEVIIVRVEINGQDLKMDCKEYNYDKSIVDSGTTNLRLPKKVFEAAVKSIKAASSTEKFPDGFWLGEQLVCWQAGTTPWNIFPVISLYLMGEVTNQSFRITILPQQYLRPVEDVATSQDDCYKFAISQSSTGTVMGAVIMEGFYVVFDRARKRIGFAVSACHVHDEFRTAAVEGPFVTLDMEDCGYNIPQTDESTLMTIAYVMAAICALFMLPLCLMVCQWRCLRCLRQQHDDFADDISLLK
Protocol: The binding assay was performed as SPA-based assay using a biotinylated form of human BACE1 recombinantly expressed and subsequently purified from Freestyle HEK293 cells. The binding assay was run in a 50 mM sodium acetate buffer, pH 4.5 containing 50 mM NaCl and 0.03% Tween-20 in white clear bottom 384 plates (Corning #3653). 10 nM (final concentration) radioligand ([^3H]-N-((1S,2R)-1-benzyl-3-cyclopropylamino-2-hydroxy-propyl)-5-(methanesulfonyl-methyl-amino)-N-((R)-1-phenyl-ethyl)-isophthalamide) (TRQ11569 purchased from GE Healthcare) was mixed with test compound at a given concentration, 6 nM (final concentration) human BACE1 and 25 μg Streptavidin coated PVT core SPA beads (RPNQ0007, GE Healthcare Life Sciences) in a total volume of 40 μl. Several concentrations of each test compound were tested in the assay for IC50 determination. The plates were incubated for one hour at room temperature and counted in a Wallac Trilux counter. Total and non-specific binding were determined using buffer and 1 μM (final concentration) of the high affinity BACE1 reference inhibitor (S)-6-[3-chloro-5-(5-prop-1-ynyl-pyridin-3-yl)-thiophen-2-yl]-2-imino-3,6-dimethyl-tetrahydro-pyrimidin-4-one, respectively. For each test compound, a IC50 value (the concentration mediating 50% inhibition of the specific binding of the radioligand) was determined from concentration-response curve and used to calculate the Ki from the equation Ki=IC50/(1+L/Kd), where L and Kd are the final concentration of the radioligand used in the assay and the dissociation constant of the radioligand, respectively. The Kd of the radioligand was determined from saturation binding experiments.

BACE1 [2] = biological target: T1, BACE1; assay: BACE1 efficacy assay (FRET-based, commercial BACE1 kit); type: biochemical; settings: 10 μM test compound
Protocol: The efficacy assay was performed as a FRET-based assay using a commercially available BACE1 kit (Life Technologies, P2985). 2 μl test compound at 10 μM (final concentration) and 15 μl BACE1 enzyme from the kit (final concentration 3 nM) were preincubated for 15 minutes at room temperature before addition of 15 μl of substrate from the kit (250 nM final concentration) and incubated for additional 90 minutes at room temperature. The assay plate was subsequently read in a Pherastar (Ex540/Em590). The enzyme activity observed in presence of test compound were normalized to the enzyme activity observed in presence of buffer and 10 μM (final concentration) of the high affinity BACE1 reference inhibitor (S)-6-[3-Chloro-5-(5-prop-1-ynyl-pyridin-3-yl)-thiophen-2-yl]-2-imino-3,6-dimethyl-tetra-hydropyrimidin-4-one, respectively. The efficacy of the test compounds was evaluated at 10 μM (final concentration) and defined as the percent inhibition of the enzyme activity using the equation % inhibition=100%−normalized enzyme activity in percent.

Aβ40 = assay: Assessment of Aβ peptide levels in rat brain and plasma following BACE1 inhibition (Aβ40 ELISA); type: in vivo; settings: 3 hours post dose, vs vehicle
Protocol: Assessment of Aβ Peptide Levels in Rat Brain and Plasma Following BACE1 Inhibition. Animals.
Young adult Male Sprague Dawley rats of approximately 250 g weight were purchased from Charles River and received 0-30 mg/kg of vehicle (10% HP betaCD+1M MeSO4, pH 2.5) or test compounds (dissolved in vehicle) only by oral gavage (p.o). The compounds are dosed at a volume of […]. Cohorts of 5-10 animals were established for each treatment condition.
At T=180 minutes after initial dosing the animals were stunned and decapitated with a guillotine. Trunk-blood was sampled in EDTA coated tubes after decapitation of the animal. The blood was centrifuged at 2200 G at 4° C. for 15 minutes and the plasma was collected and frozen at −80° C. The blood was aliquoted for Aβ ELISA and DMPK analysis. Immediately following sacrifice, the brain was extracted and split into 2 halves. The right hemibrains were snap frozen on dry ice and stored at −80° C. The left half was dissected; with the front forebrain taken for Aβ ELISA and the remainder used for DMPK analysis. These samples were also snap frozen on dry ice and stored at −80° C. until use for analysis.
The cortex samples were thawed slightly on wet ice before they were homogenized with a small volume dispersing instrument (T10 basic ULTRA-TURRAX®) which was set at speed 5 for approximately 5-7 sec. The tissue was processed in a 10 times volume of the weight, for example 100 mg of tissue was homogenized in 1000 μL of Homogenization buffer. Homogenization buffer: 50 ml Milli Q water+[…]+0.2% Diethylamin (DEA)+1 tablet of Complete Protease inhibitor cocktail+1 nM 4-(2-aminoethyl)benzenesulfonyl fluoride hydrochloride irreversible serine protease inhibitor (AEBSF).
After homogenization 450 μL aliquots of the samples are collected into a 1.5 ml Eppendorf tube and placed on wet ice, 0.5% NP-40 (50 ul) was added to all samples and then they were incubated on ice for 30 min. After which all samples were sonicated using an Ultrasonic homogenizer with 20 kHz homogeneous sound (SONOPLUS HD2070, Bandelin Electronic) 10 pulse set at 12-13% power to extract all the Aβ species. The samples were then centrifuged (Ole Dich 157 MPRF Micro centrifuge) at 20000 G for 20 minutes at 4° C. After centrifugation 285 μL of the supernatant was pipetted into 600 μL microtubes tubes and neutralized with 15 μL of 1M Tris-HCL buffer.
WAKO 294-62501 Human/Rat Abeta amyloid (40) kit was used for all ELISA analyses. 30 μL plasma samples or 30 μL of the cortex supernatants generated as described above were placed in 600 μL microtubes tubes on wet ice. To this 30 μL of 8M Urea (AppliChem A1049, 9025) are added to generate a 2-fold dilution. Both plasma and cortex supernatants are incubated on ice for 30 min. Standard rows were prepared from the standard peptide stock provided in the kit and standard diluent containing 1.6M Urea (200 μL 8M Urea+800 μL of standard diluent) and 0.8M Urea (400 μL 8M Urea+3600 μL Standard diluent). A serial 2-fold dilution of Aβ40 from 100 pmol/ml to 0 pmol/L was prepared for the assay.
After incubation with urea, all samples were further diluted by addition of 5 times standard diluent from the Kit. This was done by adding 240 μL Standard Diluent to 60 μL sample/urea mixture, which was then mixed well. 100 μL of each diluted sample was pipetted into designated wells of the ELISA plate in duplicates. The plate was then covered and incubated overnight at 4° C. The following day, the ELISA kit was brought to room temperature before use. The incubated plate was washed 5 times with the 20× washing solution diluted in Milli Q water. 100 μL HRP-conjugate was applied to each well, and the plate was covered and incubates at 4° C. for 1 hr. The wash was repeated again for 5 times. 100 μL 3,3′,5,5′-Tetramethylbenzidine (TMB) solution was applied to each well and the plate was covered and incubated in the dark at room temperature for 30 minutes. […]

efflux ratio at 60 min, 0.5 μM (P-gp (MDR1)): 1.09
Ki (BACE1 [1]): 9 nM
inhibition at 10 µM (BACE1 [2]): 106%
Structure (SMILES): COc1ccc(C(=O)Nc2cc(F)c(F)c([C@@]3(CF)N=C(N)CCC3(F)F)c2)nc1 [Compound 15, (S)-N-(3-(6-amino-3,3-difluoro-2-(fluoromethyl)-2,3,4,5-tetrahydropyridin-2-yl)-4,5-difluorophenyl)-5-methoxypicolinamide]
Aβ40 reduction (Aβ40; rat brain, 10 mg/kg p.o.): 33%
Aβ40 reduction (Aβ40; rat brain, 30 mg/kg p.o.): 43%
Aβ40 reduction (Aβ40; rat plasma, 10 mg/kg p.o.): 34%
Aβ40 reduction (Aβ40; rat plasma, 30 mg/kg p.o.): 34%
